# Activity calls are given as the source filed them.
# Assays:
# [1] = target: T1, High affinity choline transporter 1 (Homo sapiens, UniProt Q9GZV3); experiment: CHT inhibitors, dose response, cell-based, 5-point CRC, membrane potential dye (AID 504840); format: functional
# T1 sequence (Q9GZV3 whole entry): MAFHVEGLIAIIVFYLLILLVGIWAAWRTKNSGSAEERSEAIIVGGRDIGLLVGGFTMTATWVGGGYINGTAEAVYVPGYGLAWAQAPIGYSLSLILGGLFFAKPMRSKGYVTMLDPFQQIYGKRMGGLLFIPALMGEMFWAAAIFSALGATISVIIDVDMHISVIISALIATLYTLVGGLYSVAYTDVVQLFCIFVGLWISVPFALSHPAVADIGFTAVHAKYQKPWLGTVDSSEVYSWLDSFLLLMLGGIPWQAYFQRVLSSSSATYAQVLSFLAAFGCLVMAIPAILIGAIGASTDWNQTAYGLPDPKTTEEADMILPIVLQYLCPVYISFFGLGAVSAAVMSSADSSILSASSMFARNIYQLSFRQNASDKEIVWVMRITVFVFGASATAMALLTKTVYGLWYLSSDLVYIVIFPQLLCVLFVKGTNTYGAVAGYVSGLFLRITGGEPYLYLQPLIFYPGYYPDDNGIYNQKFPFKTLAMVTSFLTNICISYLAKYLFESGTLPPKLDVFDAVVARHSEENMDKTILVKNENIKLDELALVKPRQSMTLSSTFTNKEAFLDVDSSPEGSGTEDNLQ
# [2] = insulin promoter down-regulators in MIN6 cells, imaging, high-content screening, mouse beta cells (AID 1628); format: functional
# [3] = cytotoxicity in MIN6 insulinoma cells, dose response, cytotoxicity control, cell-based, mouse insulinoma (AID 2122); format: functional;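 also: confirmatory high-throughput counterscreen run to flag cytotoxic compounds; mouse MIN-6 beta cells carrying an insulin promoter eGFP reporter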
# [4] = target: T2, Aminopeptidase N (Plasmodium falciparum FcB1/Columbia, UniProt O96935); experiment: P. falciparum M1AAP inhibitors, biochemical, fluorogenic H-Leu-NHMec substrate, 1536-well (AID 1445); design: species or system Plasmodium falciparum 3D7, 3D7
# T2 sequence (O96935 whole entry): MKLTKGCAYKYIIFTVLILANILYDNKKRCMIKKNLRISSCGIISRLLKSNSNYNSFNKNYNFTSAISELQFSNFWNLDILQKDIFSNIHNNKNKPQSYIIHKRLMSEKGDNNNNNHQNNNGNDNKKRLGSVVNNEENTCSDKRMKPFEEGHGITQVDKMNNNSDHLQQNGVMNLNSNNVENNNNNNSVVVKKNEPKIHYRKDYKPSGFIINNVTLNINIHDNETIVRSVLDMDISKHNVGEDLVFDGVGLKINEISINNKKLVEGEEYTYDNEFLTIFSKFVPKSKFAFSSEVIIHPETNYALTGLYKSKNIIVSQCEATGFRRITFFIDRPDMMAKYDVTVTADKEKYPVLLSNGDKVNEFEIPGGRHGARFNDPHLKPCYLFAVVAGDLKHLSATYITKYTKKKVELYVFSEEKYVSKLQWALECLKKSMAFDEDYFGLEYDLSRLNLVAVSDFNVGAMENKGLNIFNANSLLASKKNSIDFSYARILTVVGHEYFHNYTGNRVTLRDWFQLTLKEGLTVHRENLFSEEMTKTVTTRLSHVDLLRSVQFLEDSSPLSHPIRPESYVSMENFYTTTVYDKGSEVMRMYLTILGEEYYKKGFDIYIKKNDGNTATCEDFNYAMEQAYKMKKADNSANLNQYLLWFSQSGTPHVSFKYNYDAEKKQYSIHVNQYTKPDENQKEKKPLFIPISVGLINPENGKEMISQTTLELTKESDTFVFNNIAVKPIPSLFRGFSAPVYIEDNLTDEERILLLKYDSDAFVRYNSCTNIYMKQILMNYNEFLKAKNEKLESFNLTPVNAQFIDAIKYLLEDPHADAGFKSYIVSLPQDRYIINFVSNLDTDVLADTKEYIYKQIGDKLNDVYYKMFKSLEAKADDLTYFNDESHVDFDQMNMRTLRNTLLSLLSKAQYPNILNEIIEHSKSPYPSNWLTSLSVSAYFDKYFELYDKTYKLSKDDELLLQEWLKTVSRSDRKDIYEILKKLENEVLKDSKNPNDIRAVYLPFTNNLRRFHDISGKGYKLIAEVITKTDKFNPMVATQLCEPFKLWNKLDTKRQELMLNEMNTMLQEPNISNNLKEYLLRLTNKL
# [5] = target: Genome polyprotein (dengue virus type 2, UniProt P29990); experiment: Dengue-2 NS5 methyltransferase inhibitors, primary screen, biochemical, confirmation dose response (AID 588689); format: functional
# Genome polyprotein, sequence (P29990 2492-3391 limits assumed): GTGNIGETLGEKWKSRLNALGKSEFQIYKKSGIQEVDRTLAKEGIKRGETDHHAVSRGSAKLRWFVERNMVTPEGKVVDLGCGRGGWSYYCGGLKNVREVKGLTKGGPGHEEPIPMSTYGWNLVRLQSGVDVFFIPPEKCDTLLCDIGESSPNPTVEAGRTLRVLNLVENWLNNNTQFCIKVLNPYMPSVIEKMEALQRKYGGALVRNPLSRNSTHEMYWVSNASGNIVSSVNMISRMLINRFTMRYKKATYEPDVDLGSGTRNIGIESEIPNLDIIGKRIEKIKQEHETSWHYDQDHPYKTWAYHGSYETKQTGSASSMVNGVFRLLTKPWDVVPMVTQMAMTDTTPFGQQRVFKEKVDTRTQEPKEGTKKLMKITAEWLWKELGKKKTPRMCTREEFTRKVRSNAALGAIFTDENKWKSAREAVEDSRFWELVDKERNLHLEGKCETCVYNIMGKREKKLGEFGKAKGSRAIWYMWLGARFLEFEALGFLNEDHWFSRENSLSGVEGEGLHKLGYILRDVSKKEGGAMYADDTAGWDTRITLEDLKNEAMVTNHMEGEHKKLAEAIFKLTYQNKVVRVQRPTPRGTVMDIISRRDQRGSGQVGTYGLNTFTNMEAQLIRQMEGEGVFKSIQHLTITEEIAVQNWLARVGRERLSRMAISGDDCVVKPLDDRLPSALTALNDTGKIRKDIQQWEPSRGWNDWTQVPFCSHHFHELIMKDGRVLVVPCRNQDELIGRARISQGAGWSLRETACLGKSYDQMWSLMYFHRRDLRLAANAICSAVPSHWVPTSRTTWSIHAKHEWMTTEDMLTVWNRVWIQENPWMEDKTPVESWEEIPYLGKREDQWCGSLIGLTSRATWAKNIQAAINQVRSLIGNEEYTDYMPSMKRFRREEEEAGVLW
# [6] = target: T3, Polyadenylate-binding protein 1 (Homo sapiens, UniProt P11940); experiment: PABP1 MLLE–PAM2 interaction inhibitors, dose response, miRNA deadenylation inhibitor project, biochemical, fluorescence polarization, Cy5-PAM2 peptide, secondary (AID 602260); format: functional; conditions: read-out: IC50_Mean
# T3 sequence (P11940 whole entry): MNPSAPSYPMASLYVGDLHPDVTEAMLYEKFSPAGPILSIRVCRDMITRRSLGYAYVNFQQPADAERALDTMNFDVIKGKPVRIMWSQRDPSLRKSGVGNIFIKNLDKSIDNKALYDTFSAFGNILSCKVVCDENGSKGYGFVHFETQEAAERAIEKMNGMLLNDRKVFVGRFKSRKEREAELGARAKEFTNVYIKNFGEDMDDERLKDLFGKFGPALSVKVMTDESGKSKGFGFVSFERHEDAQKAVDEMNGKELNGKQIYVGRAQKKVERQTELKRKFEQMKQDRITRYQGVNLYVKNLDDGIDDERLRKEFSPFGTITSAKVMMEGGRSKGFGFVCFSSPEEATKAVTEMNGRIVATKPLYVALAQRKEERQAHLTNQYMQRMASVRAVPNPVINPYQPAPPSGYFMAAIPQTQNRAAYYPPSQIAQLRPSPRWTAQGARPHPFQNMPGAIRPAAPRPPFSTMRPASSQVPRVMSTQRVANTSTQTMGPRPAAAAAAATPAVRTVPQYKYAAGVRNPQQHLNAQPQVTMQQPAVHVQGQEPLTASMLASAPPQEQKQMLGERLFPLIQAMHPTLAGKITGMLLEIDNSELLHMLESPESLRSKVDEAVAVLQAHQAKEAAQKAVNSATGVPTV
# [7] = target: T3, Polyadenylate-binding protein 1; experiment: PABP1 MLLE–PAM2 binding inhibitor potency, dose response, biochemical, fluorescence polarization, FITC-PAM2 peptide (AID 602259); format: functional; conditions: read-out: IC50_Mean
# [8] = target: T4, Microphthalmia-associated transcription factor (Homo sapiens, UniProt O75030); experiment: TRPM1 promoter luciferase signal decrease, dose response, MITF inhibitor project, cell-based, SK-MEL-5, cherry-picked, set 3 (AID 493073); format: functional
# T4 sequence (O75030 whole entry): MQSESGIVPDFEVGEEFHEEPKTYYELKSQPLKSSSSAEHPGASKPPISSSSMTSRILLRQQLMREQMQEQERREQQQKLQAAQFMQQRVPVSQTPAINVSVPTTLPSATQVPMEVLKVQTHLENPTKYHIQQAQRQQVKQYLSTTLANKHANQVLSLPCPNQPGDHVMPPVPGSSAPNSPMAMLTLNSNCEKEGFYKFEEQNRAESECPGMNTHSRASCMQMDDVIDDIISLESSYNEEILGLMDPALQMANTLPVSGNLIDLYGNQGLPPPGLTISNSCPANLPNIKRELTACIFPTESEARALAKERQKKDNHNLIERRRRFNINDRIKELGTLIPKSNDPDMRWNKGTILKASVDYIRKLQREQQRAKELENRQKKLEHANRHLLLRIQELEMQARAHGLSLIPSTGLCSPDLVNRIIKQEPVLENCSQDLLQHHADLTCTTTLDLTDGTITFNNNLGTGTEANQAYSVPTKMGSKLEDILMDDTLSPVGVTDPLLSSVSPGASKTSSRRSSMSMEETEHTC
# [9] = target: T5, RNA-binding protein pos-1 (Caenorhabditis elegans, UniProt G5EF15); experiment: inhibitors of POS-1/mex-3 RNA binding, dose response, biochemical, fluorescence polarization (AID 1964);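 also: purified POS-1 fused to maltose binding protein made in E. coli; potency of compounds blocking POS-1 binding to fluorescent RNA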
# T5 sequence (G5EF15 whole entry): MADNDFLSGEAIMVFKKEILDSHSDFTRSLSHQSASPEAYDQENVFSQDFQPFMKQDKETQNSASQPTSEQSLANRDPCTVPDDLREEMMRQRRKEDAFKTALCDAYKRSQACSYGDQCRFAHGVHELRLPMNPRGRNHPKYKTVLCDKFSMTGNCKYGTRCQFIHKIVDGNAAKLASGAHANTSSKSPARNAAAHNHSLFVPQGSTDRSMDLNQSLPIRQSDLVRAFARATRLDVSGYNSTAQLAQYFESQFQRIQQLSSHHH
# [10] = target: T6, Zinc finger protein mex-5 (Caenorhabditis elegans, UniProt Q9XUB2); experiment: MEX-5/TCR-2 RNA interaction inhibitors, dose response, biochemical, C. elegans, fluorescence polarization (AID 1960)
# T6 sequence (Q9XUB2 whole entry): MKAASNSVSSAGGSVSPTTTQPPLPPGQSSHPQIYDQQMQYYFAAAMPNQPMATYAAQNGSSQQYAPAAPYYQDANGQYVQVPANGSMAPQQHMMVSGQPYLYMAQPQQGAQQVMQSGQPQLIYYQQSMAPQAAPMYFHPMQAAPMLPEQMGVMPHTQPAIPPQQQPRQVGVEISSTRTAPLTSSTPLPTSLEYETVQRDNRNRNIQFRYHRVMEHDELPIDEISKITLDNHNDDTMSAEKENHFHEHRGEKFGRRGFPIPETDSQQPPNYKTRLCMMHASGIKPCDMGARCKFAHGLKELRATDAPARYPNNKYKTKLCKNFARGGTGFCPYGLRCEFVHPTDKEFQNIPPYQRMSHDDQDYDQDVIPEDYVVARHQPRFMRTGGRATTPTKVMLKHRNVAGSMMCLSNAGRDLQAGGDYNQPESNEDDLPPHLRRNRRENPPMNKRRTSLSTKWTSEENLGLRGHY
# [11] = target: T7, Rac GTPase-activating protein 1 (Homo sapiens, UniProt Q9H0H5); experiment: MgcRacGAP GTPase-activating activity inhibitors, confirmation, biochemical, ADP Hunter fluorescence, primary and confirmatory (AID 624330); format: functional
# T7 sequence (Q9H0H5 whole entry): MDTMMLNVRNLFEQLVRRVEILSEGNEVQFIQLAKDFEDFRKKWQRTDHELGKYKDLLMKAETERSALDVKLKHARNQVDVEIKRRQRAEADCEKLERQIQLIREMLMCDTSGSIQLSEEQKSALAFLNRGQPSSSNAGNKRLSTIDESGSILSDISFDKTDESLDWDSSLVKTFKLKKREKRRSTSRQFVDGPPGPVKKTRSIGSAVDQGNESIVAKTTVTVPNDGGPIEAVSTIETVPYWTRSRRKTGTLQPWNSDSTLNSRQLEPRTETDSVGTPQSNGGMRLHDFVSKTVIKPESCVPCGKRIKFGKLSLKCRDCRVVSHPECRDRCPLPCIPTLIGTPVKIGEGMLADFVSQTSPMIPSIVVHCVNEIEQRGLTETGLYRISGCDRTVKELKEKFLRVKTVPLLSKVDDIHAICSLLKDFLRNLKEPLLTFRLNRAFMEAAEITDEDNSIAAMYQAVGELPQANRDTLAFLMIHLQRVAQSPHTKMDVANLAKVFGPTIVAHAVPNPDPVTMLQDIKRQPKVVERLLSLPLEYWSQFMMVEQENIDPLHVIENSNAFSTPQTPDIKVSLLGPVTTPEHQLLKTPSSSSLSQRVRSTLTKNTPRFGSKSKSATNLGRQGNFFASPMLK
# [12] = target: T8, Voltage-gated N-type calcium channel alpha-1B subunit/Amyloid beta A4 precursor protein-binding family A member 1 (Homo sapiens, UniProt Q00975+Q02410); format: protein assay
# T8 sequence (Q00975 whole entry): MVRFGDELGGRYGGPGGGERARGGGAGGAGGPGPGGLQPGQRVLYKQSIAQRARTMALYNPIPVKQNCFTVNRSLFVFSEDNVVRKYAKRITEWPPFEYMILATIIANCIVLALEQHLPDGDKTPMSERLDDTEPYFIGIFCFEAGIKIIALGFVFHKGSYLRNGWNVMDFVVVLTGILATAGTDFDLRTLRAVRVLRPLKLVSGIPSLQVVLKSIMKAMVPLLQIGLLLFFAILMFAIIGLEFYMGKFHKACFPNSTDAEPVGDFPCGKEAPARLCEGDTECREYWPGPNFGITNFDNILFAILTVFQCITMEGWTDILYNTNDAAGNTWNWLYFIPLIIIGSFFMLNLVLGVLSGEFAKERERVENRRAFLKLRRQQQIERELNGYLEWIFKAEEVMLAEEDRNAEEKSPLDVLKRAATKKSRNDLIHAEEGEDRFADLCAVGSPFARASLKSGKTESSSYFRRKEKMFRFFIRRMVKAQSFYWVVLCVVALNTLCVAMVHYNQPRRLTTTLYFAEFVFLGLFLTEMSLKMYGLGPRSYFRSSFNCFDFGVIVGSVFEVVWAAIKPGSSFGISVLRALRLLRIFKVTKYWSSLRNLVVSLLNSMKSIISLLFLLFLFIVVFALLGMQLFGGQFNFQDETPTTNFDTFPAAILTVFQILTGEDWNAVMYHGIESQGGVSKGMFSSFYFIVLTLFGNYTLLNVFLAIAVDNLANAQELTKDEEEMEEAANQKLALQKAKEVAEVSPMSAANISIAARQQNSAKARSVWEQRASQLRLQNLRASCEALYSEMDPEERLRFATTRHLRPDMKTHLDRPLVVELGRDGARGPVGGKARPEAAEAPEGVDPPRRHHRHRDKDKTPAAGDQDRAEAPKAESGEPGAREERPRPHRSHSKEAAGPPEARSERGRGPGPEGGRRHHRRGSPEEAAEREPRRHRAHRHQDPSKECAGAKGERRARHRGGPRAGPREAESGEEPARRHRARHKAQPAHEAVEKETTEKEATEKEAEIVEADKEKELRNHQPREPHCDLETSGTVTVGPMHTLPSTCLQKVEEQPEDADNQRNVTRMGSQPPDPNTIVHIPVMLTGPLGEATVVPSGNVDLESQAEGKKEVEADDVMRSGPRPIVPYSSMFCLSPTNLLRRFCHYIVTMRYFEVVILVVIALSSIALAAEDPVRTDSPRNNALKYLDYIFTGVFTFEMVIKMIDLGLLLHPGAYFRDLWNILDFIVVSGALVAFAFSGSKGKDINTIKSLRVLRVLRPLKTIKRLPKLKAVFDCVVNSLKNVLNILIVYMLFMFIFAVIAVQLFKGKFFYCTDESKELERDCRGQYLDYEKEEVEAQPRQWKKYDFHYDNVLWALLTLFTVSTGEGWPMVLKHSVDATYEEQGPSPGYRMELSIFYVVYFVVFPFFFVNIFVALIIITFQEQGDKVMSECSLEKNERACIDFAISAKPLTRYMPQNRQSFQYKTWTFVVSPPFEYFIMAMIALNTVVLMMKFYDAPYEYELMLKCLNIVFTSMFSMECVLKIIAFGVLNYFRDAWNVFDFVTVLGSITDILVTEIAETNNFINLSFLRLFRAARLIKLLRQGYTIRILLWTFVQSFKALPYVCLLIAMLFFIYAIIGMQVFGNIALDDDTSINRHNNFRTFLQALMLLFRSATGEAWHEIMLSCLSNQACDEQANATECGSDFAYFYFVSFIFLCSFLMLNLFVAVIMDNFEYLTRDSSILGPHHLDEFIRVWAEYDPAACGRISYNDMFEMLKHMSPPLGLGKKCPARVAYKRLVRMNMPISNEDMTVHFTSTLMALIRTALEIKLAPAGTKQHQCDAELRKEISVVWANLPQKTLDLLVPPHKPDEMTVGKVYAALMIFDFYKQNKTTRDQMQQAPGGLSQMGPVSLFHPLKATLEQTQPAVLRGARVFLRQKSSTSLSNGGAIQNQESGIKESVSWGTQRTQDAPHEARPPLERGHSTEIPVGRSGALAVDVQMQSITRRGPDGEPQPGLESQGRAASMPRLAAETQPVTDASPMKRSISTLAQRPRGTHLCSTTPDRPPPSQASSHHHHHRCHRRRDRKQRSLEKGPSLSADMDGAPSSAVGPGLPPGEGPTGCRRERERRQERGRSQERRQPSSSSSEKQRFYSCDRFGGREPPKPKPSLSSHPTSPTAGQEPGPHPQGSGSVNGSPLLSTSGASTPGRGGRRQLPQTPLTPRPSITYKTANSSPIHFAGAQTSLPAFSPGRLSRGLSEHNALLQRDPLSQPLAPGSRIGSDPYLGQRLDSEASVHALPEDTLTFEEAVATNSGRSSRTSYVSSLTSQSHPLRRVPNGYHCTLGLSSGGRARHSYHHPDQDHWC
# T8 sequence (Q02410 whole entry): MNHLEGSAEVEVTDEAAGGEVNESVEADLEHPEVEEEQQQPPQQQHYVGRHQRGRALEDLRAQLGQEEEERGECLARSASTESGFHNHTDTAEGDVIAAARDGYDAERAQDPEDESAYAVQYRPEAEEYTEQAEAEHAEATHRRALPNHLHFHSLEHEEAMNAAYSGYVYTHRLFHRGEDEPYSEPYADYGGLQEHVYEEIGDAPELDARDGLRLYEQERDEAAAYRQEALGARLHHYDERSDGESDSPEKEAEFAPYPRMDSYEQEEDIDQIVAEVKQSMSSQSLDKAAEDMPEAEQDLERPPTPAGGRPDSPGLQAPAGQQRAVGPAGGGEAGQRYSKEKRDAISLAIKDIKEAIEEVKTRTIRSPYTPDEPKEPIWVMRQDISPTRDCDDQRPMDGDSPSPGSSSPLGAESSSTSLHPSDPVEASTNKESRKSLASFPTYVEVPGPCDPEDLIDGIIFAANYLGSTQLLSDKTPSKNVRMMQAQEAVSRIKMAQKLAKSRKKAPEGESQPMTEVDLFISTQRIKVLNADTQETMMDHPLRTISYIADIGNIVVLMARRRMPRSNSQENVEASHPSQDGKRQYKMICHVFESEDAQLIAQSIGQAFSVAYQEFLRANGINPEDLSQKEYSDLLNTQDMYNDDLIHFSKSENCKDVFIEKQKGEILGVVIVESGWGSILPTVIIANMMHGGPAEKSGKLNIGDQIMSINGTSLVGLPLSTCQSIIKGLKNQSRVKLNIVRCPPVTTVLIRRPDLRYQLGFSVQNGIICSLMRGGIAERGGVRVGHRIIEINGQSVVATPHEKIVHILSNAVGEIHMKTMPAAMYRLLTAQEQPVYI
# [13] = target: T8, Voltage-gated N-type calcium channel alpha-1B subunit/Amyloid beta A4 precursor protein-binding family A member 1; format: protein assay; remark: listed apart in the source
# [14] = target: Cytochrome P450 2C19 (Homo sapiens, UniProt P33261); experiment: Cytochrome panel assay with activity outcomes. Panel member name: p450-cyp2c19 Compounds with AC50 equal or less than 10 uM are considered active; format: functional; conditions: read-out: AC50
# [15] = target: Cytochrome P450 2C9 (Homo sapiens, UniProt P11712)
# [16] = Luminescence Cell-Based Dose Retest to Confirm Inhibitors of Cancer Stem Cells. [Related pubchem assays (depositor defined):AID2717, AID2721]; format: functional; conditions: Homo sapiens
smiles,measurement,setting,value
CCc1ccc(OC(C)C(=O)Nc2ccc(S(=O)(=O)Nc3nccs3)cc2)cc1 (centres undefined),IC50,[1],13.8 µM (active)
CC1(C)CC(N2CCCC2)=CC(=[N+]2CCCCC2)C1,IC50,[2],< 0.25 µM (active)
same,IC50,[3],< 0.25 µM (active)
COc1cc(/C=C2/SC(NS(=O)(=O)c3ccccc3)=NC2=O)c([N+](=O)[O-])cc1OC,IC50,[4],24.1 µM (active)
same,IC50,[5],45.8 µM (active)
same,IC50,[6],> 66 µM (inactive)
same,IC50,[7],> 66 µM (inactive)
O=C(CCl)Nc1cccc(S(=O)(=O)NC2=NCCCCC2)c1,AC50,[8],7.85 µM (active)
CCOC(=O)C1=C(C)N=c2s/c(=C/c3cccc([N+](=O)[O-])c3O)c(=O)n2C1c1cc(OC)c(OC)c(OC)c1 (centres undefined),IC50,[1],13.2 µM (active)
CSc1nc(S)c2[nH]c(S)nc2n1,EC50,[9],5.15 µM (active)
same,EC50,[10],4.78 µM (active)
same,IC50,[5],30.6 µM (active)
same,IC50,[11],32.7 µM (active)
COc1ccc(CC(=O)Nc2ccc(-c3nnc(-c4ccccc4)o3)cc2)cc1,IC50,[12],8.88 µM (active)
same,IC50,[13],> 50 µM (inactive)
same,AC50,[14],1.26 µM (inconclusive)
same,AC50,[15],0.224 µM (inconclusive)
Cc1ccc(N2C(=O)NC(=O)/C(=C/C=C/c3ccco3)C2=O)cc1,AC50,[16],1.65 µM (active)
same,AC50,[8],5.97 µM (active)

# From ChEMBL document CHEMBL1201862, “PubChem BioAssay data set” (2004)
